In patent US9133158B2, “Bicyclic dihydroisoquinoline-1-one derivatives” (Hoffmann-La Roche Inc., priority 2011, dated 2015):

Tests used:
human CYP11B2 = molecular target: T1, human CYP11B2 (Homo sapiens, UniProt P19099); test: G-402 cellular enzyme assay, human CYP11B2 (aldosterone release, HTRF); type: cell-based; conditions: G-402 cells, 1 μM Deoxycorticosterone
T1 construct: expressed in transfected cells
T1 sequence (P19099 25-503): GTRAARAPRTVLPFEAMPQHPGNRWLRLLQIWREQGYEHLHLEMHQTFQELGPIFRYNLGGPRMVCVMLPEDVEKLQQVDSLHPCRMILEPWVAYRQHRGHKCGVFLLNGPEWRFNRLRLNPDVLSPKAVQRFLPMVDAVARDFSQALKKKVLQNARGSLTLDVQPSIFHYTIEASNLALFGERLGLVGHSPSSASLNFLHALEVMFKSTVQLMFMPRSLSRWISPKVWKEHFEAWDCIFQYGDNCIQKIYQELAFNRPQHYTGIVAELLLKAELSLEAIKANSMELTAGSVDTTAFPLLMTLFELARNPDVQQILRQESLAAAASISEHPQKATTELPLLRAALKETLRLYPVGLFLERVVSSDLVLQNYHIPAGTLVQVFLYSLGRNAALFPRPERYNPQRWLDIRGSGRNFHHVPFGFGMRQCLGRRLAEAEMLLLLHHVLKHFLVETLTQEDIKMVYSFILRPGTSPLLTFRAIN
Summary of the method: (§1)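 Supernatant steroid product measured by HTRF (aldosterone for CYP11B2, cortisol for CYP11B1) after 16 h exposure of stably transfected G-402 cells to compound. Substrates were 1 μM deoxycorticosterone and 1 μM deoxycortisol, respectively; EC50 derived from a four-parameter MMF curve fit.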

human CYP11B1 = molecular target: T2, human CYP11B1 (Homo sapiens, UniProt P15538); test: G-402 cellular enzyme assay, human CYP11B1 (cortisol release, HTRF); type: cell-based; conditions: G-402 cells, 1 μM Deoxycortisol
T2 construct: expressed in transfected cells
T2 sequence (P15538 25-503): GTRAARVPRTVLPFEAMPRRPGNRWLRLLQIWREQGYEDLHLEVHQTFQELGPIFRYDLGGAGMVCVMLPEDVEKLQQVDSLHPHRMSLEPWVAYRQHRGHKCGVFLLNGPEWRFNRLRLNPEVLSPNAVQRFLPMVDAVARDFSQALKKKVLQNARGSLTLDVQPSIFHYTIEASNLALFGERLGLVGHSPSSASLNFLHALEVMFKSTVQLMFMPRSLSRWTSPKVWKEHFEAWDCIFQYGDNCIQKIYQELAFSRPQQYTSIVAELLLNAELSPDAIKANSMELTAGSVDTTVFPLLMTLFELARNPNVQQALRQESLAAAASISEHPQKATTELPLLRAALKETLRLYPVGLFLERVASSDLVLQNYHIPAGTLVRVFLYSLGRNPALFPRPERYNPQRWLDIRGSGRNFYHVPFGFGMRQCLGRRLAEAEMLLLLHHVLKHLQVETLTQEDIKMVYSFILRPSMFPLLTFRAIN
Summary of the method: as §1

SMILES | EC50 (human CYP11B2) [nM] | EC50 (human CYP11B1) [nM]
Cc1nncn1Cc1cncc(N2CCc3cc(Cl)ccc3C2=O)c1 [Example 177, 6-Chloro-2-[5-(3-methyl-[1,2,4]triazol-4-ylmethyl)-pyridin-3-yl]-3,4-dihydro-2H-isoquinolin-1-one] | 412 | 6310
O=C1c2ccc(Cl)cc2CCN1c1cnccc1CO [Example 56, 6-Chloro-2-(4-hydroxymethyl-pyridin-3-yl)-3,4-dihydro-2H-isoquinolin-1-one; compound with trifluoro-acctic acid] | 297 | 13800
O=C1c2ccc(Cl)cc2CN1c1cncc(N2CCC[C@H]2CO)c1 [Example 136, 5-Chloro-2-[5-((S)-2-hydroxymethyl-pyrrolidin-1-yl)-pyridin-3-yl]-2,3-dihydro-isoindol-1-one] | 102 | 2660
O=C1c2ccc(Cl)cc2CCN1c1cncc(Cn2ccnc2C(F)(F)F)c1 [Example 189, 6-Chloro-2-[5-(2-trifluoromethyl-imidazol-1-ylmethyl)-pyridin-3-yl]-3,4-dihydro-2H-isoquinolin-1-one] | 55.3 | 710
O=C1c2ccc(Cl)cc2CCN1c1cncc(-c2cccc(F)c2)c1 [Example 231, 6-Chloro-2-[5-(3-fluoro-phenyl)-pyridin-3-yl]-3,4-dihydro-2H-isoquinolin-1-one] | 23.3 | 469
O=C1CCCCN1Cc1cncc(N2CCc3cc(Cl)ccc3C2=O)c1 [Example 173, 6-Chloro-2-[5-(2-oxo-piperidin-1-ylmethyl)-pyridin-3-yl]-3,4-dihydro-2H-isoquinolin-1-one] | 334 | 12300
O=C1c2ccc(Cl)cc2CCN1c1cncc(Cn2ccnc2C2CC2)c1 [Example 188, 6-Chloro-2-[5-(2-cyclopropyl-imidazol-1-ylmethyl)-pyridin-3-yl]-3,4-dihydro-2H-isoquinolin-1-one] | 228 | 4150
COC(C)c1c(F)cncc1N1CCc2cc(Cl)ccc2C1=O (stereo not drawn) [Example 76, 6-Chloro-2-[5-fluoro-4-(1-methoxy-ethyl)-pyridin-3-yl]-3,4-dihydro-2H-isoquinolin-1-one] | 492 | 13800
O=C1c2ccc(Cl)cc2CCN1c1cncc(COc2ccccc2F)c1 [Example 199, 6-Chloro-2-[5-(2-fluoro-phenoxymethyl)-pyridin-3-yl]-3,4-dihydro-2H-isoquinolin-1-one] | 104 | 282
COc1cncc(N2CC(C)(C)c3cc(Cl)ccc3C2=O)c1 [Example 103, 6-Chloro-2-(5-methoxy-pyridin-3-yl)-4,4-dimethyl-3,4-dihydro-2H-isoquinolin-1-one] | 564 | 11000
O=C1c2ccc(Cl)cc2CCN1c1cncc(-c2ccccc2C(F)(F)F)c1 [Example 242, 6-Chloro-2-[5-(2-trifluoromethyl-phenyl)-pyridin-3-yl]-3,4-dihydro-2H-isoquinolin-1-one] | 25.6 | 206
Cn1ccnc1C(=O)c1cncc(N2CCc3cc(Cl)ccc3C2=O)c1 [Example 267, 6-Chloro-2-[5-(1-methyl-4H-imidazole-2-carbonyl)-pyridin-3-yl]-3,4-dihydro-2H-isoquinolin-1-one] | 1610 | 11300
CC1CN(c2cccnc2)C(=O)c2ccc(Cl)cc21 (stereo not drawn) [Example 105, 6-Chloro-4-methyl-2-pyridin-3-yl-3,4-dihydro-2H-isoquinolin-1-one] | 382 | 4490
O=C1c2ccc(Cl)cc2CCN1c1cncc(Br)c1 [Example 7, 2-(5-Bromo-pyridin-3-yl)-6-chloro-3,4-dihydro-2H-isoquinolin-1-one] | 77.9 | 704
CC1(C)c2cc(Cl)ccc2C(=O)N1c1cncc(OC(F)F)c1 [Example 131, 5-Chloro-2-(5-difluoromethoxy-pyridin-3-yl)-3,3-dimethyl-2,3-dihydro-isoindol-1-one] | 11.9 | 264
CC(O)c1cncc(N2CCc3cc(Cl)ccc3C2=O)c1 (stereo not drawn) [Example 13, 6-Chloro-2-[5-(1-hydroxy-ethyl)-pyridin-3-yl]-3,4-dihydro-2H-isoquinolin-1-one] | 54.3 | 865
O=C1c2ccc(Cl)cc2CCN1c1cncc(CNc2ccccc2)c1 [Example 257, 6-Chloro-2-(5-phenylaminomethyl-pyridin-3-yl)-3,4-dihydro-2H-isoquinolin-1-one] | 11.3 | 95.4
COC(C)c1cncc(N2CCc3cc(Cl)ccc3C2=O)c1 (stereo not drawn) [Example 16, 6-Chloro-2-[5-(1-methoxy-ethyl)-pyridin-3-yl]-3,4-dihydro-2H-isoquinolin-1-one] | 19.3 | 126
O=C1c2ccc(Cl)cc2CCN1c1cncc(CN2C(=O)CC[C@H]2CO)c1 [Example 83, 6-Chloro-2-[5-((S)-2-hydroxymethyl-5-oxo-pyrrolidin-1-ylmethyl)-pyridin-3-yl]-3,4-dihydro-2H-isoquinolin-1-one] | 590 | 15700
O=C(Nc1cncc(N2CCc3cc(Cl)ccc3C2=O)c1)Nc1cccc(C(F)(F)F)c1 [Example 251, 1-[5-(6-Chloro-1-oxo-3,4-dihydro-1H-isoquinolin-2-yl)-pyridin-3-yl]-3-(3-trifluoromethyl-phenyl)-urea] | 5880 | 15800

Continued, values first:

EC50 (human CYP11B2) [nM] | EC50 (human CYP11B1) [nM] | SMILES
47.1 | 932 | CCC(=O)N1CCCC(c2cncc(N3C(=O)c4ccc(Cl)cc4C3(C)C)n2)C1 (stereo not drawn) [Example 463, 5-Chloro-3,3-dimethyl-2-[6-(1-propionyl-piperidin-3-yl)-pyrazin-2-yl]-2,3-dihydro-isoindol-1-one]
9 | 1170 | CC(=O)N1CC[C@H](Oc2cncc(N3C(=O)c4ccc(Cl)cc4C3(C)C)c2)C1 [Example 443, 2-[5-((S)-1-Acetyl-pyrrolidin-3-yloxy)-pyridin-3-yl]-5-chloro-3,3-dimethyl-2,3-dihydro-isoindol-1-one]
21.2 | 1980 | CCS(=O)(=O)N1CC[C@H](Oc2cncc(N3C(=O)c4ccc(Cl)cc4C3(C)C)c2)C1 [Example 448, 5-Chloro-2-[5-((S)-1-ethanesulfonyl-pyrrolidin-3-yloxy)-pyridin-3-yl]-3,3-dimethyl-2,3-dihydro-isoindol-1-one]
122 | 20100 | CC(=O)N1CC(Oc2cncc(N3C(=O)c4ccc(Cl)cc4C3(C)C)c2)C1 [Example 450, 2-[5-(1-Acetyl-azetidin-3-yloxy)-pyridin-3-yl]-5-chloro-3,3-dimethyl-2,3-dihydro-isoindol-1-one]
175 | 13700 | CC1(C)c2nc(Cl)ccc2C(=O)N1c1cccnc1 [Example 298, 2-Chloro-7,7-dimethyl-6-pyridin-3-yl-6,7-dihydro-pyrrolo[3,4-b]pyridin-5-one]
6.9 | 737 | Cc1cccnc1C(=O)NCc1cncc(N2C(=O)c3ccc(Cl)cc3C2(C)C)c1 [Example 430, 3-Methyl-pyridine-2-carboxylic acid [5-(6-chloro-1,1-dimethyl-3-oxo-1,3-dihydro-isoindol-2-yl)-pyridin-3-ylmethyl]-amide]
6.6 | 228 | CC1(C)c2cc(Cl)ccc2C(=O)N1c1cncc(CNC(=O)c2ccccn2)c1 [Example 434, Pyridine-2-carboxylic acid [5-(6-chloro-1,1-dimethyl-3-oxo-1,3-dihydro-isoindol-2-yl)-pyridin-3-ylmethyl]-amide]
1870 | 6610 | CS(=O)(=O)NC1CCCc2c1cncc2N1Cc2cc(Cl)ccc2C1=O (single isomer, unassigned) [Example 326, N-[(S or R)-4-(5-Chloro-1-oxo-1,3-dihydro-isoindol-2-yl)-5,6,7,8-tetrahydro-isoquinolin-8-yl]-methanesulfonamide]
29.7 | 1450 | CC1(C)c2cc(Cl)ccc2C(=O)N1c1cncc(CNS(C)(=O)=O)c1 [Example 391, N-[5-(6-Chloro-1,1-dimethyl-3-oxo-1,3-dihydro-isoindol-2-yl)-pyridin-3-ylmethyl]-methane-sulfonamide]
8.6 | 717 | CC(=O)N1CCN(c2cncc(N3C(=O)c4ccc(Cl)cc4C3(C)C)c2)CC1 [Example 455, 2-[5-(4-Acetyl-piperazin-1-yl)-pyridin-3-yl]-5-chloro-3,3-dimethyl-2,3-dihydro-isoindol-1-one]
